Consider one compound from patent US12428405B2, “Chalcone-based chemotherapeutic compound for triple negative breast cancer” (QATAR UNIVERSITY, priority 2019, dated 2025).

Assay [1] has as its system tubulin. In words: Cell free tubulin polymerization assay. The conditions noted are these: N=1×2, colchicine and paclitaxel as controls. It is filed as biochemical. On the procedure: The effect of compound 14 on tubulin polymerization dynamics was assessed using the cell free Cytoskeleton tubulin polymerization assay kit, Version 8.3 (Cytoskeleton, Inc., USA). The experiment was conducted based on the manufacturer's recommendations. colchicine was used as a depolymerizing control while paclitaxel was used as a polymerizing control. Briefly, stock solutions of 10 μM of the compounds and controls were prepared in general tubulin buffer. Then, 10 μl of each solution was added in duplicates in half area 96-well plate prewarmed at 37° C. It was subsequently incubated at 37° C. for 2 minutes. Tubulin solution was prepared and 100 μl of it was added to each of the prewarmed wells of the compounds. The plate was immediately placed at a plate reader set up at kinetic modes and 37° C. temperature. Recording was conducted every minute for 60 minutes at 340 nm Absorbance.

The test system of assay [2] is MCF-7. Description: Radius cell migration assay. Format: cell-based. The conditions noted are these: Homo sapiens, MCF7; 24 hours of treatment; 5 concentrations; three independent experiments; read-out: Migratory IC50 MCF-7. The procedure: (§1) For MCF-7 and SK-BR-3 cell lines, migration testing was performed using the Radius™ Cell Migration Assay Kit (Cell Biolabs, Inc., USA) and migration was quantified based on the change in wound area.

Assay [3] relates to SK-BR-3. Description: Radius cell migration assay. Format: cell-based. The conditions noted are these: Homo sapiens, 24 hours of treatment, 5 concentrations, three independent experiments, read-out: Migratory IC50 SK-BR-3. On the procedure: as §1

Each structure is given as a SMILES string. Entries after “also recorded” stand apart in the source; their conditions may differ.

As to `COc1cccc(C(=O)/C=C/c2ccc(N(CCCl)CCCl)cc2)c1` [Compound 14, (E)-3-(4-(Bis(2-chloroethyl)amino)phenyl)-1-(3-methoxyphenyl) prop-2-en-1-one], the “effect on tubulin polymerization (in words)” value in assay [1] is “inhibited with an effect comparable to colchicine; also recorded: comparable to tubulin desterilizing agent, colchicine”. The results for the IC50 in assay [2] and in assay [3] were 2440 ± 390 nM and 2790 ± 450 nM, respectively.
